The experiment deals with PARP7 (Homo sapiens (Human), UniProt Q7Z3E1). The experiment in a line: Enzymatic assay for inhibition of PARP7: TR-FRET displacement of biotinylated Probe A from the TIPARP active site. Format: binding. As to conditions: Table A-1. The gist of the method:
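TR-FRET, ex 320 nm / em 615 and 665 nm. Signal ratio reflects complex formation.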

Sequence of PARP7 (Q7Z3E1 whole entry): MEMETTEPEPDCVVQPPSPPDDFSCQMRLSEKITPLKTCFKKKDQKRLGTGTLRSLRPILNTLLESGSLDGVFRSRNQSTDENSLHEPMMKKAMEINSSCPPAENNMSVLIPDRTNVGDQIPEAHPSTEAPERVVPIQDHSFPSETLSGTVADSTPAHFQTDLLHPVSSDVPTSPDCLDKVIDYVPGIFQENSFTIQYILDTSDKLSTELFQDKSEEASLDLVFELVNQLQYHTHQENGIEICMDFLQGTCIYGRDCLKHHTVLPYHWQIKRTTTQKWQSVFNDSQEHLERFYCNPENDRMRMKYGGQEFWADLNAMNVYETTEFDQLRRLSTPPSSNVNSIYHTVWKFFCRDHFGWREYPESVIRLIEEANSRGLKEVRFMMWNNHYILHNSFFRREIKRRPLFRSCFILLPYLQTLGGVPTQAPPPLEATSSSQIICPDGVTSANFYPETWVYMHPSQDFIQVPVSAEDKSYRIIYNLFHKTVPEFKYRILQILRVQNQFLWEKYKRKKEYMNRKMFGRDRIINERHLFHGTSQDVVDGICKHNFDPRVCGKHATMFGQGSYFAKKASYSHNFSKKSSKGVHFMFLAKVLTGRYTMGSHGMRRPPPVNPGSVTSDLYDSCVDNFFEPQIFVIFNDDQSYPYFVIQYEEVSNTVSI

In turn, `N#Cc1ccc(N2CCN(C(=O)CCOCCOc3cn[nH]c(=O)c3C#N)CC2)nc1` [Example 554, 5-(2-[3-[4-(5-Cyanopyridin-2-yl)piperazin-1-yl]-3-oxopropoxy]ethoxy)-3-oxo-2,3-dihydropyridazine-4-carbonitrile] gave a concentration for half-maximal inhibition (IC50) of under 100 nM.

In turn, `N#Cc1ccc(N2CCN(C(=O)CCOCCOc3cn[nH]c(=O)c3Br)CC2)nc1` [Example 555, 6-[4-(3-[2-[(5-Bromo-6-oxo-1,6-dihydropyridazin-4-yl)oxy]ethoxy]propanoyl)piperazin-1-yl]pyridine-3-carbonitrile] yielded an IC50 of under 100 nM.

`C[C@H](COCCC(=O)N1CCN(c2ncc(Cl)cn2)CC1)Nc1cn[nH]c(=O)c1C(F)(F)F` [Example 556, 5-[[(2R)-1-[3-[4-(5-Chloropyrimidin-2-yl)piperazin-1-yl]-3-oxopropoxy]propan-2-yl]amino]-4-(trifluoromethyl)-2,3-dihydropyridazin-3-one] came in with a half-maximal inhibitory concentration (IC50) of 100 to 1000 nM.

Turning to `COC[C@H](COCCC(=O)N1CCN(c2ncc(Cl)cn2)CC1)Nc1cn[nH]c(=O)c1C(F)(F)F` [Example 557, 5-[[(2R)-1-[3-[4-(5-Chloropyrimidin-2-yl)piperazin-1-yl]-3-oxopropoxy]-3-methoxypropan-2-yl]amino]-4-(trifluoromethyl)-2,3-dihydropyridazin-3-one], the IC50 is under 100 nM.

Turning to `COC[C@@H](COCCC(=O)N1CCN(c2ncc(Cl)cn2)CC1)Nc1cn[nH]c(=O)c1C(F)(F)F` [Example 558, 5-[[(2S)-1-[3-[4-(5-Chloropyrimidin-2-yl)piperazin-1-yl]-3-oxopropoxy]-3-methoxypropan-2-yl]amino]-4-(trifluoromethyl)-2,3-dihydropyridazin-3-one], the concentration for half-maximal inhibition (IC50) was under 100 nM.

Regarding `COC[C@@H](COCCC(=O)N1CCN(c2ncc(C(F)(F)F)cn2)CC1)Nc1cn[nH]c(=O)c1C(F)(F)F` [Example 559, 5-[[(2S)-1-Methoxy-3-(3-oxo-3-[4-[5-(trifluoromethyl)pyrimidin-2-yl]piperazin-1-yl]propoxy)propan-2-yl]amino]-4-(trifluoromethyl)-2,3-dihydropyridazin-3-one], the IC50 is under 100 nM.

Molecule `C[C@@H](COCCC(=O)N1CCN(c2ncc(Cl)cn2)CC1)Nc1cn[nH]c(=O)c1C(F)(F)F` [Example 562, 5-[[(2S)-1-[3-[4-(5-Chloropyrimidin-2-yl)piperazin-1-yl]-3-oxopropoxy]propan-2-yl]amino]-4-(trifluoromethyl)-2,3-dihydropyridazin-3-one] showed a half-inhibitory concentration (IC50) of under 100 nM.

The molecule `C[C@@H](COCCC(=O)N1CCN(c2ccc(Cl)cn2)CC1)Nc1cn[nH]c(=O)c1C(F)(F)F` [Example 563, 5-[[(2S)-1-[3-[4-(5-Chloropyridin-2-yl)piperazin-1-yl]-3-oxopropoxy]propan-2-yl]amino]-4-(trifluoromethyl)-2,3-dihydropyridazin-3-one] registered a 50% inhibitory concentration (IC50) of under 100 nM.

Molecule `C[C@@H](COCCC(=O)N1CCN(c2ccc(C(F)(F)F)cn2)CC1)Nc1cn[nH]c(=O)c1C(F)(F)F` [Example 564, 5-[[(2S)-1-(3-Oxo-3-[4-[5-(trifluoromethyl)pyridin-2-yl]piperazin-1-yl]propoxy)propan-2-yl]amino]-4-(trifluoromethyl)-2,3-dihydropyridazin-3-one] had an IC50 of under 100 nM.

In turn, `O=C(C[C@H]1CC[C@@H](CNc2cn[nH]c(=O)c2C(F)(F)F)O1)N1CCN(c2ncc(C(F)(F)F)cn2)CC1` [Example 568 Isomer C, 5-((((2S,5R)-5-(2-Oxo-2-(4-(5-(trifluoromethyl)pyrimidin-2-yl)piperazin-1-yl)ethyl)tetrahydrofuran-2-yl)methyl)amino)-4-(trifluoromethyl)pyridazin-3(2H)-one] returned an IC50 of under 100 nM.

`O=C(C[C@@H]1CC[C@H](CNc2cn[nH]c(=O)c2C(F)(F)F)O1)N1CCN(c2ncc(C(F)(F)F)cn2)CC1` [Example 568 Isomer D, 5-((((2R,5S)-5-(2-Oxo-2-(4-(5-(trifluoromethyl)pyrimidin-2-yl)piperazin-1-yl)ethyl)tetrahydrofuran-2-yl)methyl)amino)-4-(trifluoromethyl)pyridazin-3(2H)-one] showed an IC50 of under 100 nM.

Molecule `CC(CC(=O)N1CCN(c2ccc(C#N)cn2)CC1)OC[C@@H](C)Oc1cn[nH]c(=O)c1C(F)(F)F` (stereo partly drawn) [Example 569, 6-(4-[3-[(2R)-2-[[6-Oxo-5-(trifluoromethyl)-1,6-dihydropyridazin-4-yl]oxy]propoxy]butanoyl]piperazin-1-yl)pyridine-3-carbonitrile] returned an IC50 of 100 to 1000 nM.

Regarding `O=C(C[C@H]1CC[C@@H](COc2cn[nH]c(=O)c2C(F)(F)F)O1)N1CCN(c2ncc(C(F)(F)F)cn2)CC1` [Example 574 Isomer C, 5-(((2S,5R)-5-(2-Oxo-2-(4-(5-(trifluoromethyl)pyrimidin-2-yl)piperazin-1-yl)ethyl)-tetrahydrofuran-2-yl)methoxy)-4-(trifluoromethyl)pyridazin-3(2H)-one], the IC50 was under 100 nM.

Molecule `O=C(C[C@@H]1CC[C@H](COc2cn[nH]c(=O)c2C(F)(F)F)O1)N1CCN(c2ncc(C(F)(F)F)cn2)CC1` [Example 574 Isomer D, 5-(((2R,5S)-5-(2-Oxo-2-(4-(5-(trifluoromethyl)pyrimidin-2-yl)piperazin-1-yl)ethyl)-tetrahydrofuran-2-yl)methoxy)-4-(trifluoromethyl)pyridazin-3(2H)-one] returned an IC50 of under 100 nM.

`O=C(C[C@H]1CC[C@@H](COc2cn[nH]c(=O)c2Cl)O1)N1CCN(c2ncc(C(F)(F)F)cn2)CC1` [Example 575 Isomer C, 4-Chloro-5-(((2S,5R)-5-(2-oxo-2-(4-(5-(trifluoromethyl)pyrimidin-2-yl)piperazin-1-yl)ethyl)-tetrahydrofuran-2-yl)methoxy)pyridazin-3(2H)-one] gave an IC50 of 100 to 1000 nM.

`O=C(C[C@@H]1CC[C@H](COc2cn[nH]c(=O)c2Cl)O1)N1CCN(c2ncc(C(F)(F)F)cn2)CC1` [Example 575 Isomer D, 4-Chloro-5-(((2R,5S)-5-(2-oxo-2-(4-(5-(trifluoromethyl)pyrimidin-2-yl)piperazin-1-yl)ethyl)-tetrahydrofuran-2-yl)methoxy)pyridazin-3(2H)-one] registered an IC50 of at least 1000 nM.

As for `C[C@@H](COc1cn[nH]c(=O)c1Cl)OCCC(=O)N1CCN(c2ncc(C(F)(F)F)cn2)CC1` [Example 578 Isomer B, (S)-4-Chloro-5-(2-(3-oxo-3-(4-(5-(trifluoromethyl)pyrimidin-2-yl)piperazin-1-yl)propoxy)propoxy)pyridazin-3(2H)-one], the IC50 is under 100 nM.

`C[C@@H](COCCC(=O)N1CCN(c2ncc(C#N)cn2)CC1)Oc1cn[nH]c(=O)c1C(F)(F)F` [Example 579, 2-(4-[3-[(2S)-2-[[6-Oxo-5-(trifluoromethyl)-1,6-dihydropyridazin-4-yl]oxy]propoxy]propanoyl]piperazin-1-yl)pyrimidine-5-carbonitrile] registered an IC50 of under 100 nM.

For `N#Cc1ccc(N2CCN(C(=O)C[C@H]3CC[C@@H](COc4cn[nH]c(=O)c4C(F)(F)F)O3)CC2)nc1` [Example 580 Isomer C, 6-(4-[2-[(2R,5S)-5-([[6-oxo-5-(trifluoromethyl)-1,6-dihydropyridazin-4-yl]oxy]methyl)oxolan-2-yl]acetyl]piperazin-1-yl)pyridine-3-carbonitrile], the 50% inhibitory concentration (IC50) is under 100 nM.

As for `N#Cc1ccc(N2CCN(C(=O)C[C@@H]3CC[C@H](COc4cn[nH]c(=O)c4C(F)(F)F)O3)CC2)nc1` [Example 580 Isomer D, 6-(4-[2-[(2S,5R)-5-([[6-oxo-5-(trifluoromethyl)-1,6-dihydropyridazin-4-yl]oxy]methyl)oxolan-2-yl]acetyl]piperazin-1-yl)pyridine-3-carbonitrile], the concentration for half-maximal inhibition (IC50) was under 100 nM.

Take `N#Cc1ccc(N2CCN(C(=O)C[C@H]3CC[C@H](CNc4cn[nH]c(=O)c4C(F)(F)F)O3)CC2)nc1` [Example 581 Isomer C, 6-(4-[2-[(2R,5R)-5-([[6-oxo-5-(trifluoromethyl)-1,6-dihydropyridazin-4-yl]amino]methyl)oxolan-2-yl]acetyl]piperazin-1-yl)pyridine-3-carbonitrile]: the IC50 was under 100 nM.

On to `N#Cc1ccc(N2CCN(C(=O)C[C@@H]3CC[C@H](CNc4cn[nH]c(=O)c4C(F)(F)F)O3)CC2)nc1` [Example 581 Isomer D, 6-(4-[2-[(2S,5R)-5-([[6-oxo-5-(trifluoromethyl)-1,6-dihydropyridazin-4-yl]amino]methyl)oxolan-2-yl]acetyl]piperazin-1-yl)pyridine-3-carbonitrile], for which the IC50 was under 100 nM.

Turning to `N#Cc1ccc(N2CCN(C(=O)C[C@H]3CC[C@@H](COc4cn[nH]c(=O)c4Cl)O3)CC2)nc1` [Example 582 Isomer C, 6-(4-[2-[(2R,5S)-5-[[(5-Chloro-6-oxo-1,6-dihydropyridazin-4-yl)oxy]methyl]oxolan-2-yl]acetyl]piperazin-1-yl)pyridine-3-carbonitrile], the IC50 was at least 1000 nM.

As for `N#Cc1ccc(N2CCN(C(=O)C[C@@H]3CC[C@H](COc4cn[nH]c(=O)c4Cl)O3)CC2)nc1` [Example 582 Isomer D, 6-(4-[2-[(2S,5R)-5-[[(5-Chloro-6-oxo-1,6-dihydropyridazin-4-yl)oxy]methyl]oxolan-2-yl]acetyl]piperazin-1-yl)pyridine-3-carbonitrile], the half-inhibitory concentration (IC50) was at least 1000 nM.

`C[C@@H](COCCC(=O)N1CCN(c2ccc(C(F)(F)F)cn2)CC1)Oc1cn[nH]c(=O)c1C(F)(F)F` [Example 584, 5-[[(2S)-1-(3-oxo-3-[4-[5-(trifluoromethyl)pyridin-2-yl]piperazin-1-yl]propoxy)propan-2-yl]oxy]-4-(trifluoromethyl)-2,3-dihydropyridazin-3-one] registered an IC50 of under 100 nM.

Molecule `CC[C@@H](COCCC(=O)N1CCN(c2ncc(C(F)(F)F)cn2)CC1)Nc1cn[nH]c(=O)c1C(F)(F)F` [Example 585, 5-[[(2S)-1-(3-Oxo-3-[4-[5-(trifluoromethyl)pyrimidin-2-yl]piperazin-1-yl]propoxy)butan-2-yl]amino]-4-(trifluoromethyl)-2,3-dihydropyridazin-3-one] yielded a half-inhibitory concentration (IC50) of under 100 nM.

These data come from patent publication US10550105B2 (Ribon Therapeutics Inc., priority 2018, dated 2020).
